Data on 17 compounds can be found in patent US10407430B2, “Janus kinase 1 selective inhibitor and pharmaceutical use thereof” (YANG JI CHEMICAL CO., LTD., priority 2015, dated 2019).

One may read the inhibition as how much of the control response was suppressed.

Type in all cases: biochemical
In one assay the target is T1, Human JAK1 (Homo sapiens, UniProt P23458).
T1 construct: purchased Millipore, Germany
As to the kind of experiment: In-vitro kinase inhibition test, JAK1. As to conditions: for inhibition at 1 µM: compound at 1 uM, read-out: JAK1 kinase-phosphorylation inhibitory level (% inhibition); for JAK1/JAK2: ratio of % inhibition of JAK1 to JAK2 at 1 uM.

A further assay addresses T2, Human TYK2 (Homo sapiens, UniProt P29597).
T2 construct: purchased Millipore, Germany
As to the kind of experiment: In-vitro kinase inhibition test, TYK2. As to conditions: compound at 1 uM; read-out: TYK2 kinase-phosphorylation inhibitory level (% inhibition).

The target of the next assay is T3, Human JAK2 (Homo sapiens, UniProt O60674).
T3 construct: purchased Millipore, Germany
T3 sequence (O60674 whole entry): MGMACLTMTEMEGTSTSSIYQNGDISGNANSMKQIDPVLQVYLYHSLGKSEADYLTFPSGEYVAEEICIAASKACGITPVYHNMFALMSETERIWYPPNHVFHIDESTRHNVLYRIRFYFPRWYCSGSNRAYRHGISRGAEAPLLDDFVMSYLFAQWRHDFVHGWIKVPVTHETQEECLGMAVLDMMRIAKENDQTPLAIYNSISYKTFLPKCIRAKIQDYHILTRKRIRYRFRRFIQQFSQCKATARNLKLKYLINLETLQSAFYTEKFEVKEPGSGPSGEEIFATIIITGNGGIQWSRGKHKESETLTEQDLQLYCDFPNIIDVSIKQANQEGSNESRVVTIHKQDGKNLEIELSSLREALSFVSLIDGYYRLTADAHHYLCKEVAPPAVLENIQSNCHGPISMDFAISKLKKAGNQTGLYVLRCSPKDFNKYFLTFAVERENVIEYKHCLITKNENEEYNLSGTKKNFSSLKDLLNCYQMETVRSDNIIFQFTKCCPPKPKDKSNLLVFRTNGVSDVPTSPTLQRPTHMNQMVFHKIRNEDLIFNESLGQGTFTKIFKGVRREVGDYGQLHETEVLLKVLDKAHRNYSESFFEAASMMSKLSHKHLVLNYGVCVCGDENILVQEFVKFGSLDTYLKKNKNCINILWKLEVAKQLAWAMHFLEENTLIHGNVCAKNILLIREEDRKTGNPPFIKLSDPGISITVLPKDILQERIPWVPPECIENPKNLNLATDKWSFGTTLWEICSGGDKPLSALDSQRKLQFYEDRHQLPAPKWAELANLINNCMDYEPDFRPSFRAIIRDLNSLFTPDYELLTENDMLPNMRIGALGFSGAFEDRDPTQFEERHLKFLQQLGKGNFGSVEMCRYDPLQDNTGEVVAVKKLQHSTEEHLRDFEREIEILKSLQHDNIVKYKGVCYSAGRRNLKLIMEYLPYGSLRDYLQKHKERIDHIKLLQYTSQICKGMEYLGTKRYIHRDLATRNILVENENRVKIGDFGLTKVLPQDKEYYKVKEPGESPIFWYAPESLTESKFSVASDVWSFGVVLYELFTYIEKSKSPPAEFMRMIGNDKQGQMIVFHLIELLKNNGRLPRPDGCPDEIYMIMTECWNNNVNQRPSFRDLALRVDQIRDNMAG
As to the kind of experiment: In-vitro kinase inhibition test, JAK2. As to conditions: compound at 1 uM; read-out: JAK2 kinase-phosphorylation inhibitory level (% inhibition).

The target in the next assay is T4, Human JAK3 (Homo sapiens, UniProt P52333).
T4 construct: purchased Millipore, Germany
T4 sequence (P52333 1-1124): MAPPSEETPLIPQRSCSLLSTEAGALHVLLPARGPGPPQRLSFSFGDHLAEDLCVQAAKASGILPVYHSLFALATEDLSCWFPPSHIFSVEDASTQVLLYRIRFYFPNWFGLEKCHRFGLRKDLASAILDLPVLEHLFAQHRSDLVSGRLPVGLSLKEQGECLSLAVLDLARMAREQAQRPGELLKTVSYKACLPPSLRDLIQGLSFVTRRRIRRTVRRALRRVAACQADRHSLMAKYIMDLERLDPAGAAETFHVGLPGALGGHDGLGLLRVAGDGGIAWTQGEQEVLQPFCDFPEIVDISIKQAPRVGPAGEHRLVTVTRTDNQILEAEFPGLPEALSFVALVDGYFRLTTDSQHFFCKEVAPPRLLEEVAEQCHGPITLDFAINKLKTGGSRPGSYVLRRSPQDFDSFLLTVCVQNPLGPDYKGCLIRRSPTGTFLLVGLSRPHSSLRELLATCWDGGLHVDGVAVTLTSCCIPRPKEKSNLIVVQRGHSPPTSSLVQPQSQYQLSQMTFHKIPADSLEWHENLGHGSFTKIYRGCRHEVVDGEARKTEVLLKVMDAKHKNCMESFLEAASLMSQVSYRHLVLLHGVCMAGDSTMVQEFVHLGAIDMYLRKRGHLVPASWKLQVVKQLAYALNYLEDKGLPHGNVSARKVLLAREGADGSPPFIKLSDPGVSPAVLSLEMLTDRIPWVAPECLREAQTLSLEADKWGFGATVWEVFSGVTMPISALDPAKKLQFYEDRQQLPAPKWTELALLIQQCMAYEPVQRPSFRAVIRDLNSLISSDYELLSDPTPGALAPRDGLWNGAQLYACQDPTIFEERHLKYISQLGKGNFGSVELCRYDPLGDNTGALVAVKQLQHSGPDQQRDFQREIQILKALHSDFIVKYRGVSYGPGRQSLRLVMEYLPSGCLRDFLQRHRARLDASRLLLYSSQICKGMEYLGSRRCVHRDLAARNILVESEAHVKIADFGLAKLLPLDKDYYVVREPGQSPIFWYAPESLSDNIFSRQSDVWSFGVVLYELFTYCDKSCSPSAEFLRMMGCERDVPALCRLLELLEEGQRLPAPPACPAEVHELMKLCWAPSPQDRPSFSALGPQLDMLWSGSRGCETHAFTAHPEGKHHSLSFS
As to the kind of experiment: In-vitro kinase inhibition test, JAK3. As to conditions: compound at 1 uM; read-out: JAK3 kinase-phosphorylation inhibitory level (% inhibition).

Molecules are shown by their SMILES.

T1 sequence (P23458 whole entry): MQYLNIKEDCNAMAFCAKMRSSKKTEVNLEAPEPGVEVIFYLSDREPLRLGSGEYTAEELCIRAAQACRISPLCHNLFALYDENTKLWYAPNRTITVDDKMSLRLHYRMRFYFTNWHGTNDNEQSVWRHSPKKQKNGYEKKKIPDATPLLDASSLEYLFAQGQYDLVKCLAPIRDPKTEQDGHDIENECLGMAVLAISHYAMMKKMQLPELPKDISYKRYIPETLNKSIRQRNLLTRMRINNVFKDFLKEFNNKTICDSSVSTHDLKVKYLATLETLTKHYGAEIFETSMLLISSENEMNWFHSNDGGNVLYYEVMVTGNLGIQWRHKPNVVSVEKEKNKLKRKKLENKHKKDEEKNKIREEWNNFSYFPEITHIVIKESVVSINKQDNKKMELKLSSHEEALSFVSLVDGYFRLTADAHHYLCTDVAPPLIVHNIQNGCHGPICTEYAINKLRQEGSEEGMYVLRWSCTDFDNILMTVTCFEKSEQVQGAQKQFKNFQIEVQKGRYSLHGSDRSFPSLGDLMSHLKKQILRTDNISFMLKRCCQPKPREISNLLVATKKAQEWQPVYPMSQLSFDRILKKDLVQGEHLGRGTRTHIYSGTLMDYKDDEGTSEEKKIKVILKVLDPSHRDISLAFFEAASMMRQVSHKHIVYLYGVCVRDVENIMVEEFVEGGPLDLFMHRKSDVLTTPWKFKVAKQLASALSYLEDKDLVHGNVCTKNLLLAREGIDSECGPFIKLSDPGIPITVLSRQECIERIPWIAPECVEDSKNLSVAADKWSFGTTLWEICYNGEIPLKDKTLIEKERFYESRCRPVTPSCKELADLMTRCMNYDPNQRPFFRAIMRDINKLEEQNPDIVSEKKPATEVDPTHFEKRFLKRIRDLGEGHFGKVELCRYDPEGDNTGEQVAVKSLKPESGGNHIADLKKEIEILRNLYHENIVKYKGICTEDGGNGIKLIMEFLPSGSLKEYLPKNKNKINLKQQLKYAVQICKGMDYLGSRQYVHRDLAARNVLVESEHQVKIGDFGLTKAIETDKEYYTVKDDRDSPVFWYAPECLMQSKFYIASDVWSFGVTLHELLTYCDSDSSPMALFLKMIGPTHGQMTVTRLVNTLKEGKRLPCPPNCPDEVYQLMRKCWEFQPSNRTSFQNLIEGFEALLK
T2 sequence (P29597 whole entry): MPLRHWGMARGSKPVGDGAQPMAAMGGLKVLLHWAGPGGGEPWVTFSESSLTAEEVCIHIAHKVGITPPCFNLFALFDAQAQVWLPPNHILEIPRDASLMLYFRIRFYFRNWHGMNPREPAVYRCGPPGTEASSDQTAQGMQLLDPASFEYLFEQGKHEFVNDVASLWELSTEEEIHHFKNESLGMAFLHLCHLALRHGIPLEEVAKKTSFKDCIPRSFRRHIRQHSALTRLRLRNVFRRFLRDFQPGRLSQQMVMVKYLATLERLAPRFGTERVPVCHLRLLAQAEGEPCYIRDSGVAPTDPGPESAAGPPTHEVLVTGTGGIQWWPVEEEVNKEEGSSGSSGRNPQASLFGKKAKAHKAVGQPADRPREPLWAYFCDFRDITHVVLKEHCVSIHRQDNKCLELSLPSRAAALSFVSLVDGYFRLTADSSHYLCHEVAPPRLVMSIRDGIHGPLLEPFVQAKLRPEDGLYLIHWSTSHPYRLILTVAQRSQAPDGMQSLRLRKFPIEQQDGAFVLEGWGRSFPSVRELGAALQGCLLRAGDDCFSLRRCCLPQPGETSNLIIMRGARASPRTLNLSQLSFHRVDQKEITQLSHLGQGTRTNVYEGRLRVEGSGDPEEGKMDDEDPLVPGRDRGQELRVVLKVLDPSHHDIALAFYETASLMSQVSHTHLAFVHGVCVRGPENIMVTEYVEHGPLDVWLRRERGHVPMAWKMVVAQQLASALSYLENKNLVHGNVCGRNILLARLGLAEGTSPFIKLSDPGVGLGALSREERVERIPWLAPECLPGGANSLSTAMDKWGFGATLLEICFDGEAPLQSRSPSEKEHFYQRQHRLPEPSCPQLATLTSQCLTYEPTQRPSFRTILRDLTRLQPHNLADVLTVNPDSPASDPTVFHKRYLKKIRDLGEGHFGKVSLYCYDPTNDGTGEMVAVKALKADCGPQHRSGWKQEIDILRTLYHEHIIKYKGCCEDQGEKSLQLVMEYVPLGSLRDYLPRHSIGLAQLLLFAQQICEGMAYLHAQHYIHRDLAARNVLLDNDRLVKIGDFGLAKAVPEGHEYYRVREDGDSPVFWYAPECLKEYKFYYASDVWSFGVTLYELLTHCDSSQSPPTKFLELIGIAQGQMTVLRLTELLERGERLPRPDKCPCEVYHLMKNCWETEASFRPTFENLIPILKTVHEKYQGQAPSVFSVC
Procedure for Human JAK2: (§1) Human-derived JAK1, JAK2, JAK3 and TYK2 (Millipore, Germany) were used as kinases. Each kinase was diluted with an appropriate buffer as described below, and then mixed with reaction reagents.
(§2) 3-morpholinopropane-1-sulfonic acid (MOPS) and EDTA were dissolved in deionized water at a concentration of 20 mM and 1 mM, respectively, and then 100 μL of β-mercaptoethanol, 10 μL of Brij-35™, 5 mL of glycerol, and 100 mg of bovine serum albumin (BSA), each per 100 mL of the solution, were added to the solution, thereby preparing a dilution buffer for JAK2, JAK3, and TYK2.
(§3) Each compound was dissolved in a 100%-DMSO solution at a concentration of about 50 μM. This prepared solution was reacted with reaction reagents in each well of a 96-well plate until a final concentration of the compound reached 1 μM. A detailed experimental method for each kinase is as follows.
(§4) After reaction for about 40 minutes at room temperature, the reaction was stopped by adding 5 uL of a 3% (v/v) phosphoric acid solution.
(§5) The inhibitory levels (% inhibition) represent a percentage of reduction in phosphorylation activity in each test group with respect to the phosphorylation activity of a corresponding kinase in a negative control group lacking any of the compounds synthesized in the examples. % inhibition=[(Scintillation value of Test compound non-treatment group−Scintillation value of Test compound treatment group)/(Scintillation value of Test compound non-treatment group)]×100
Procedure for Human TYK2: as §1, §2, §3, §4, §5

Consider `CN(c1ncnc2[nH]ccc12)[C@@H]1CCN(S(=O)(=O)c2ccccc2C#N)C1` [Example 18, (R)-2-((3-(methyl(7H-pyrrolo[2,3-d]pyrimidine-4-yl)amino)pyrrolidine-1-yl)sulfonyl)benzonitrile], for which the inhibition at 1 µM at Human JAK1 worked out at 97%; on Human TYK2, 81%; on Human JAK2, 73%; at Human JAK3 it was 22%. Further, the JAK1/JAK2 on Human JAK1 turned out to be 1.33.

As for `CN(c1ncnc2[nH]ccc12)[C@@H]1CCN(S(=O)(=O)c2cccc(C#N)c2)C1` [Example 19, (R)-3-((3-(methyl(7H-pyrrolo[2,3-d]pyrimidine-4-yl)amino)pyrrolidine-1-yl)sulfonyl)benzonitrile], the inhibition at 1 µM on Human JAK1 was 99%; on Human TYK2, 95%; at Human JAK2 it was 81%; at Human JAK3, 42%. Further, the JAK1/JAK2 at Human JAK1 came to 1.22.

Turning to `CN(c1ncnc2[nH]ccc12)[C@@H]1CCN(S(=O)(=O)c2ccc(C#N)cc2)C1` [Example 20, (R)-4-((3-(methyl(7H-pyrrolo[2,3-d]pyrimidine-4-yl)amino)pyrrolidine-1-yl)sulfonyl)benzonitrile], the inhibition at 1 µM is 97% on Human JAK1, 84% on Human TYK2, 46% at Human JAK2 and 9% on Human JAK3. In addition, the JAK1/JAK2 on Human JAK1 is 2.11.

Turning to `CN(c1ncnc2[nH]ccc12)[C@@H]1CCN(S(=O)(=O)c2ccccc2[N+](=O)[O-])C1` [Example 21, (R)—N-methyl-N-(1-((2-nitrophenyl)sulfonyl)pyrrolidine-3-yl)-7H-pyrrolo[2,3-d]pyrimidine-4-amine], the inhibition at 1 µM on Human JAK1 is 93%; on Human TYK2, 67%; at Human JAK2, 48%; at Human JAK3, 21%. The JAK1/JAK2 at Human JAK1 is 1.94.

Turning to `CN(c1ncnc2[nH]ccc12)[C@@H]1CCN(S(=O)(=O)c2cccc([N+](=O)[O-])c2)C1` [Example 22, (R)—N-methyl-N-(1-((3-nitrophenyl)sulfonyl)pyrrolidine-3-yl)-7H-pyrrolo[2,3-d]pyrimidine-4-amine], the inhibition at 1 µM at Human JAK1 came to 100%; on Human TYK2 it was 99%; on Human JAK2, 97%; on Human JAK3, 74%. For the same compound, the JAK1/JAK2 on Human JAK1 was determined as 1.03.

Consider `CN(c1ncnc2[nH]ccc12)[C@@H]1CCN(S(=O)(=O)c2ccc([N+](=O)[O-])cc2)C1` [Example 23, (R)—N-methyl-N-(1-((4-nitrophenyl)sulfonyl)pyrrolidine-3-yl)-7H-pyrrolo[2,3-d]pyrimidine-4-amine], for which the inhibition at 1 µM on Human JAK1 stood at 100%; at Human TYK2, 94%; on Human JAK2 it was 84%; at Human JAK3 it was 31%. Also, the JAK1/JAK2 on Human JAK1 is 1.19.

As for `Cc1cccc(S(=O)(=O)N2CC[C@@H](N(C)c3ncnc4[nH]ccc34)C2)c1` [Example 24, (R)—N-methyl-N-(1-(m-tolylsulfonyl)pyrrolidine-3-yl)-7H-pyrrolo[2,3-d]pyrimidine-4-amine], the inhibition at 1 µM at Human JAK1 was found to be 95%; on Human TYK2, 87%; on Human JAK2 it was 53%; at Human JAK3, 8%. Further, the JAK1/JAK2 at Human JAK1 is recorded as 1.79.

Turning to `Cc1ccc(S(=O)(=O)N2CC[C@@H](N(C)c3ncnc4[nH]ccc34)C2)cc1` [Example 25, (R)—N-methyl-N-(1-tosylpyrrolidine-3-yl)-7H-pyrrolo[2,3-d]pyrimidine-4-amine], the inhibition at 1 µM on Human JAK1 came out at 97%; at Human TYK2, 68%; on Human JAK2, 42%; at Human JAK3 it was 10%. For the same compound, the JAK1/JAK2 on Human JAK1 came out at 2.31.

Regarding `COc1ccc(S(=O)(=O)N2CC[C@@H](N(C)c3ncnc4[nH]ccc34)C2)cc1` [Example 26, (R)—N-(1-((4-methoxyphenyl)sulfonyl)pyrrolidine-3-yl)-N-methyl-7H-pyrrolo[2,3-d]pyrimidine-4-amine], the inhibition at 1 µM at Human JAK1 came to 98%; at Human TYK2, 71%; at Human JAK2 it was 44%; at Human JAK3, 10%. Further, on Human JAK1, the JAK1/JAK2 was determined as 2.23.

For `CN(c1ncnc2[nH]ccc12)[C@@H]1CCN(S(=O)(=O)c2ccc(C(F)(F)F)cc2)C1` [Example 27, (R)—N-methyl-N-(1-((4-(trifluoromethyl)phenyl)sulfonyl)pyrrolidine-3-yl)-7H-pyrrolo[2,3-d]pyrimidine-4-amine], the inhibition at 1 µM at Human JAK1 is 96%; at Human TYK2, 56%; at Human JAK2, 21%; at Human JAK3, 4%. For the same compound, the JAK1/JAK2 on Human JAK1 was 4.57.

As to `CN(c1ncnc2[nH]ccc12)[C@@H]1CCN(S(=O)(=O)c2ccc3ccccc3c2)C1` [Example 28, (R)—N-methyl-N-(1-(naphthalene-2-ylsulfonyl)pyrrolidine-3-yl)-7H-pyrrolo[2,3-d]pyrimidine-4-amine], the inhibition at 1 µM was determined as 99% at Human JAK1, 82% on Human TYK2, 57% at Human JAK2 and 23% on Human JAK3. At Human JAK1, the JAK1/JAK2 worked out at 1.74.

As to `CN(c1ncnc2[nH]ccc12)[C@@H]1CCN(S(=O)(=O)N2CCCCC2)C1` [Example 29, (R)—N-methyl-N-(1-(piperidine-1-ylsulfonyl)pyrrolidine-3-yl)-7H-pyrrolo[2,3-d]pyrimidine-4-amine], the inhibition at 1 µM is 91% on Human JAK1, 65% at Human TYK2, 21% at Human JAK2 and 10% on Human JAK3. For the same compound, at Human JAK1, the JAK1/JAK2 is listed as 4.33.

As to `CN(c1ncnc2[nH]ccc12)[C@@H]1CCN(S(=O)(=O)N2CCOCC2)C1` [Example 30, (R)—N-methyl-N-(1-(morpholinosulfonyl)pyrrolidine-3-yl)-7H-pyrrolo[2,3-d]pyrimidine-4-amine], the inhibition at 1 µM was determined as 87% on Human JAK1, 44% on Human TYK2, 6% at Human JAK2 and 13% at Human JAK3. Also, the JAK1/JAK2 on Human JAK1 came out at 14.50.

On to `N#Cc1cccc(S(=O)(=O)N2CC[C@@H](Nc3ncnc4[nH]ccc34)C2)c1` [Example 32, (R)-3-((3-((7H-pyrrolo[2,3-d]pyrimidine-4-yl)amino)pyrrolidine-1-yl)sulfonyl)benzonitrile], for which the inhibition at 1 µM at Human JAK1 was determined as 67%; on Human TYK2, 30%; on Human JAK2 it was 29%; on Human JAK3, 3%. Also, the JAK1/JAK2 at Human JAK1 is 2.31.

In the case of `CCN(c1ncnc2[nH]ccc12)[C@@H]1CCN(C(=O)CC#N)C1` [Example 33, (R)-3-(3-(ethyl(7H-pyrrolo[2,3-d]pyrimidine-4-yl)amino)pyrrolidine-1-yl)-3-oxopropanenitrile], the inhibition at 1 µM was 97% on Human JAK1, 94% on Human TYK2, 91% at Human JAK2 and 63% on Human JAK3. Moreover, the JAK1/JAK2 at Human JAK1 turned out to be 1.07.

For the compound `CCN(c1ncnc2[nH]ccc12)[C@@H]1CCN(S(=O)(=O)c2cccc(C#N)c2)C1` [Example 34, (R)-3-((3-(ethyl(7H-pyrrolo[2,3-d]pyrimidine-4-yl)amino)pyrrolidine-1-yl)sulfonyl)benzonitrile], the inhibition at 1 µM on Human JAK1 worked out at 97%; on Human TYK2, 92%; at Human JAK2 it was 86%; on Human JAK3, 19%. The JAK1/JAK2 at Human JAK1 is listed as 1.13.

Regarding `N#CCC(=O)N1CC[C@@H](N(CC2CC2)c2ncnc3[nH]ccc23)C1` [Example 35, (R)-3-(3-((cyclopropylmethyl)(7H-pyrrolo[2,3-d]pyrimidine-4-yl)amino)pyrrolidine-1-yl)-3-oxopropanenitrile], the inhibition at 1 µM at Human JAK1 is 88%; on Human TYK2, 37%; at Human JAK2, 34%; at Human JAK3, 14%. Also, at Human JAK1, the JAK1/JAK2 came to 2.59.
